Measurements taken from US10251892B2, “Bicyclic heterocycles as FGFR4 inhibitors” (Incyte Corporation, priority 2015, dated 2019).

biological target: FGFR3 enzyme (Homo sapiens (Human), UniProt P22607); test: FGFR Enzymatic Assay (peptide phosphorylation, FRET), FGFR3; type: biochemical; conditions: IC50 ratio showing FGFR3 selectivity; pre-incubated for 4 hours
Method: The inhibitor potency of the exemplified compounds was measured in an enzyme assay that measures peptide phosphorylation using FRET measurements to detect product formation. Inhibitors were serially diluted in DMSO and a volume of 0.5 μL was transferred to the wells of a 384-well plate.
GraphPad prism3 was used to analyze the data.

Chain of FGFR3 enzyme (P22607 23-806): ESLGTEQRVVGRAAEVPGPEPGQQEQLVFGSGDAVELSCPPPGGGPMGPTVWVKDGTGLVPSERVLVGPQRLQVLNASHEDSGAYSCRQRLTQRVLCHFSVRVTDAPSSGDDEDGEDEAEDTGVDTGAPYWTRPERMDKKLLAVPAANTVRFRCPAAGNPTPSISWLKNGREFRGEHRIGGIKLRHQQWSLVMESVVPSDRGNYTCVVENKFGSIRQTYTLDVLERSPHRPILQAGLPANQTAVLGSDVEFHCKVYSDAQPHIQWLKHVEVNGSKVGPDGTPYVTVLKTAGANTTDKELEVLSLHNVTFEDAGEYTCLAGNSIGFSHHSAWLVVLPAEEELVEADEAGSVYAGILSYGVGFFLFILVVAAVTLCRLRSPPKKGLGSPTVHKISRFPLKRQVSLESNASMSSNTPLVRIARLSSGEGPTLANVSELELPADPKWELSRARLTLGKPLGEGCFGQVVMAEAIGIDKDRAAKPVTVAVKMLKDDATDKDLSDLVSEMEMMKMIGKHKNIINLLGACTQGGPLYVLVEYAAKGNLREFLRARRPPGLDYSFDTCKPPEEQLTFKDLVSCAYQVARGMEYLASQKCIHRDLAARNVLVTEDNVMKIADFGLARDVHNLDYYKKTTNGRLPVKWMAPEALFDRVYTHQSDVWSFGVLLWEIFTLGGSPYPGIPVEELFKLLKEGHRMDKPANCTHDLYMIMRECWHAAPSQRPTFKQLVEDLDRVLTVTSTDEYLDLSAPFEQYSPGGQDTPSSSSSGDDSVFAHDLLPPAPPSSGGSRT

FGFR1/FGFR3 | FGFR4/FGFR3 | SMILES
>3 | >10 | CCn1cc(N2C(=O)N(c3c(F)c(OC)cc(OC)c3F)Cc3cnc(-c4cn(C)nc4C)cc32)cn1 [Example 131, 3-(2,6-difluoro-3,5-dimethoxyphenyl)-7-(1,3-dimethyl-1H-pyrazol-4-yl)-1-(1-ethyl-1H-pyrazol-4-yl)-3,4-dihydropyrido[4,3-d]pyrimidin-2(1H)-one]
>3 | >5 | COc1cc(OC)c(F)c(N2Cc3cnc(-c4cn(C)nc4C)cc3N(CCc3cnn(C)c3)C2=O)c1F [Example 114, 3-(2,6-difluoro-3,5-dimethoxyphenyl)-7-(1,3-dimethyl-1H-pyrazol-4-yl)-1-(2-(1-methyl-1H-pyrazol-4-yl)ethyl)-3,4-dihydropyrido[4,3-d]pyrimidin-2(1H)-one]
>5 | >5 | COc1cc(OC)c(F)c(N2Cc3cnc(-c4cn(C)nc4C)cc3N(C3CC3)C2=O)c1F [Example 83, 1-cyclopropyl-3-(2,6-difluoro-3,5-dimethoxyphenyl)-7-(1,3-dimethyl-1H-pyrazol-4-yl)-3,4-dihydropyrido[4,3-d]pyrimidin-2(1H)-one]
>5 | >10 | COc1cc(OC)c(F)c(N2Cc3cnc(-c4cn(C)nc4C)cc3N(Cc3cccnn3)C2=O)c1F [Example 88, 3-(2,6-difluoro-3,5-dimethoxyphenyl)-7-(1,3-dimethyl-1H-pyrazol-4-yl)-1-(pyridazin-3-ylmethyl)-3,4-dihydropyrido[4,3-d]pyrimidin-2(1H)-one]
>3 | >5 | COc1cc(OC)c(F)c(N2Cc3cnc(-c4cn(C)nc4C)cc3N(c3ccc4cn[nH]c4c3)C2=O)c1F [Example 133, 3-(2,6-difluoro-3,5-dimethoxyphenyl)-7-(1,3-dimethyl-1H-pyrazol-4-yl)-1-(1H-indazol-6-yl)-3,4-dihydropyrido[4,3-d]pyrimidin-2(1H)-one]
>10 | >10 | COc1cc(CN2C(=O)N(c3c(F)c(OC)cc(OC)c3F)Cc3cnc(-c4cn(C)nc4C)cc32)ccn1 [Example 58, 3-(2,6-difluoro-3,5-dimethoxyphenyl)-7-(1,3-dimethyl-1H-pyrazol-4-yl)-1-((2-methoxypyridin-4-yl)methyl)-3,4-dihydropyrido[4,3-d]pyrimidin-2(1H)-one]
>5 | >5 | COc1cc(OC)c(F)c(N2Cc3cnc(-c4cn(C)nc4C)cc3N(Cc3ccc4c(c3)OCCO4)C2=O)c1F [Example 38, 3-(2,6-difluoro-3,5-dimethoxyphenyl)-1-((2,3-dihydrobenzo[b][1,4]dioxin-6-yl)methyl)-7-(1,3-dimethyl-1H-pyrazol-4-yl)-3,4-dihydropyrido[4,3-d]pyrimidin-2(1H)-one]
>5 | >10 | COc1cc(OC)c(F)c(N2Cc3cnc(-c4cn(C)nc4C)cc3N(Cc3ccc(F)c(F)c3)C2=O)c1F [Example 73, 3-(2,6-difluoro-3,5-dimethoxyphenyl)-1-(3,4-difluorobenzyl)-7-(1,3-dimethyl-1H-pyrazol-4-yl)-3,4-dihydropyrido[4,3-d]pyrimidin-2(1H)-one]
>10 | >10 | CCc1cc(CN2C(=O)N(c3c(F)c(OC)cc(OC)c3F)Cc3cnc(-c4cn(C)nc4C)cc32)no1 [Example 64, 3-(2,6-difluoro-3,5-dimethoxyphenyl)-7-(1,3-dimethyl-1H-pyrazol-4-yl)-1-((5-ethylisoxazol-3-yl)methyl)-3,4-dihydropyrido[4,3-d]pyrimidin-2(1H)-one]

The remaining lines, values behind:

SMILES | FGFR1/FGFR3 | FGFR4/FGFR3
CCN1C(=O)N(c2c(F)c(OC)cc(OC)c2F)Cc2cnc(-c3ccc(C4(C#N)CC4)cc3)cc21 [Example 183, 1-(4-(3-(2,6-difluoro-3,5-dimethoxyphenyl)-1-ethyl-2-oxo-1,2,3,4-tetrahydropyrido[4,3-d]pyrimidin-7-yl)phenyl)cyclopropanecarbonitrile] | >3 | >10
COc1cc(OC)c(F)c(N2Cc3cnc(-c4ccc(C#N)nc4)cc3C3(CC3)C2=O)c1F [Example 20, 5-(2′-(2,6-difluoro-3,5-dimethoxyphenyl)-3′-oxo-2′,3′-dihydro-1′H-spiro[cyclopropane-1,4′-[2,7]naphthyridine]-6′-yl)picolinonitrile] | >5 | –
CCN1C(=O)N(c2c(F)c(OC)cc(OC)c2F)Cc2cnc(-c3cn(CC(=O)N4CCOCC4)nc3C)cc21 [Example 51, 3-(2,6-difluoro-3,5-dimethoxyphenyl)-1-ethyl-7-(3-methyl-1-(2-morpholino-2-oxoethyl)-1H-pyrazol-4-yl)-3,4-dihydropyrido[4,3-d]pyrimidin-2(1H)-one] | >1 | >1
CNC(=O)c1ccc(-c2cc3c(cn2)CN(c2c(F)c(OC)cc(OC)c2F)C(=O)C32CC2)cn1 [Example 18, 5-(2′-(2,6-difluoro-3,5-dimethoxyphenyl)-3′-oxo-2′,3′-dihydro-1′H-spiro[cyclopropane-1,4′-[2,7]naphthyridine]-6′-yl)-N-methylpicolinamide] | >5 | –
CCN1C(=O)N(c2c(F)c(OC)cc(OC)c2F)Cc2cnc(-c3ccc(C(=O)NC(C)C)nc3)cc21 [Example 178, 5-(3-(2,6-difluoro-3,5-dimethoxyphenyl)-1-ethyl-2-oxo-1,2,3,4-tetrahydropyrido[4,3-d]pyrimidin-7-yl)-N-isopropylpicolinamide] | >5 | >5
COc1cc(OC)c(F)c(N2Cc3cnc(-c4cn(C)nc4C)cc3N(C3(C#N)CC3)C2=O)c1F [Example 91, 1-(3-(2,6-difluoro-3,5-dimethoxyphenyl)-7-(1,3-dimethyl-1H-pyrazol-4-yl)-2-oxo-3,4-dihydropyrido[4,3-d]pyrimidin-1(2H)-yl)cyclopropanecarbonitrile] | >5 | >5
COc1cc(OC)c(F)c(N2Cc3cnc(-c4cn(C)nc4C)cc3N(c3ccc(F)c(F)c3)C2=O)c1F [Example 102, 3-(2,6-difluoro-3,5-dimethoxyphenyl)-1-(3,4-difluorophenyl)-7-(1,3-dimethyl-1H-pyrazol-4-yl)-3,4-dihydropyrido[4,3-d]pyrimidin-2(1H)-one] | >3 | >10
COc1cc(OC)c(F)c(N2Cc3cnc(-c4cn(C)nc4C)cc3N(c3cnccn3)C2=O)c1F [Example 70, 3-(2,6-difluoro-3,5-dimethoxyphenyl)-7-(1,3-dimethyl-1H-pyrazol-4-yl)-1-(pyrazin-2-yl)-3,4-dihydropyrido[4,3-d]pyrimidin-2(1H)-one] | >5 | >5
CCN1C(=O)N(c2c(F)c(OC)cc(OC)c2F)Cc2cnc(-c3ccc(C(=O)NC4CC4)nc3)cc21 [Example 176, N-cyclopropyl-5-(3-(2,6-difluoro-3,5-dimethoxyphenyl)-1-ethyl-2-oxo-1,2,3,4-tetrahydropyrido[4,3-d]pyrimidin-7-yl)picolinamide] | >10 | >5
CNC(=O)c1ccc(-c2cc3c(cn2)CN(c2c(F)c(OC)cc(OC)c2F)C(=O)C32CC2)cc1 [Example 19, 4-(2′-(2,6-difluoro-3,5-dimethoxyphenyl)-3′-oxo-2′,3′-dihydro-1′H-spiro[cyclopropane-1,4′-[2,7]naphthyridine]-6′-yl)-N-methylbenzamide] | >5 | –
